Drawing on US8614215B2, “Quinoxaline inhibitors of phosphoinositide-3-kinases (PI3Ks)” (Merck Serono SA, priority 2007, dated 2013), this text covers IC50 for 29 compounds.

pIC50: −log10 of the molar value.

By pIC50 is commonly meant the negative decadic logarithm of the IC50, by convention in mol/L.

The test system of this assay is Human recombinant GST-PI3K. The assay is described as follows: PI3K induced-lipid phosphorylation, neomycin-SPA scintillation proximity assay. Conditions: Human recombinant GST-PI3K, SPA. It is filed as biochemical. The text has this: The efficacy of compounds of the invention in inhibiting the PI3K induced-lipid phosphorylation may be tested in the following binding assay. The assay combines the scintillation proximity assay technology (SPA, Amersham) with the capacity of neomycin (a polycationic antibiotic) to bind phospholipids with high affinity and specificity. The Scintillation Proximity Assay is based on the properties of weakly emitting isotopes (such as ^3H, ^125I, ^33P). Coating SPA beads with neomycin allows the detection of phosphorylated lipid substrates after incubation with recombinant PI3K and radioactive ATP in the same well, by capturing the radioactive phospholipids to the SPA beads through their specific binding to neomycin.
To a 96 wells MTP containing 10 μL of the test compound of Formula (I) (solubilized in 10% DMSO; […]), the following assay components are added: 1) 10 μL of lipid micelles 2) 20 μL of Kinase buffer ([^33P]γATP162 μM/300 nCi, MgCl2 2.5 mM, DTT 2.5 mM, Na3VO4 25 uM in Hepes 40 mM, pH 7.4) and 3) 10 μL (100 ng) of Human recombinant GST-PI3K (in Hepes 40 mM, pH 7.4, ethylenglycol 4%). After incubation at room temperature for 120 minutes, with gentle agitation, the reaction is stopped by addition of 200 μL of a solution containing 250 μg of neomycin-coated PVT SPA beads, ATP 60 mM and EDTA 6.2 mM in PBS. The assay is further incubated at room temperature for 60 minutes with gentle agitation to allow binding of phospholipids to neomycin-SPA beads. After precipitation of the neomycin-coated PVT SPA beads for 5 minutes at 1500×g, radioactive PtdIns(3)P is quantified by scintillation counting in a Wallac MicroBeta™ plate counter.
The values indicated in Table I below refer to the IC50 (μM) with respect to PI3K, i.e. the amount necessary to achieve 50% inhibition of said target. Said values show a considerable inhibitory potency of quinoxaline compounds with regard to PI3K.
In general terms: Scintillation proximity formats need no separation of bound from free tracer.
As to `COc1ccc(CCO)c(Nc2nc3ccccc3nc2NS(=O)(=O)c2ccc(C#N)cc2)c1` [Example 34], the pIC50 is 7.66.
The value for `COc1ccc(CC2C[C@H]3CC[C@@H](C2)N3C)c(Nc2nc3ccccc3nc2NS(=O)(=O)c2cn(C)cn2)c1` (stereo partly drawn) [Example 15, N-{3-[(5-methoxy-2-{[(1R,5S)-8-methyl-8-azabicyclo[3.2.1]oct-3-yl]methyl}phenyl)amino]quinoxalin-2-yl}-1-methyl-1H-imidazole-4-sulfonamide] was 6.96.
Next, `COc1ccc(CC2CC(C)(C)N(C)C(C)(C)C2)c(Nc2nc3ccccc3nc2NS(=O)(=O)c2cn(C)cn2)c1` [Example 14, N-[3-({5-methoxy-2-[(1,2,2,6,6-pentamethylpiperidin-4-yl)methyl]phenyl}amino)quinoxalin-2-yl]-1-methyl-1H-imidazole-4-sulfonamide]: 6.38.
Next, `COc1ccc(S(=O)(=O)NCCO)c(Nc2nc3ccccc3nc2NS(=O)(=O)CCCS(C)(=O)=O)c1` [Example 64, N-(2-Hydroxyethyl)-4-methoxy-2-{[3-({[3-(methylsulfonyl)propyl]sulfonyl}amino)quinoxalin-2-yl]amino}benzenesulfonamide]: 6.52; `COc1ccc(CCO)c(Nc2nc3ccccc3nc2NS(=O)(=O)c2ccc(CN(C)C)cc2)c1` [Example 89, 4-[(Dimethylamino)methyl]-N-(3-{[2-(2-hydroxyethyl)-5-methoxyphenyl]amino}quinoxalin-2-yl)benzenesulfonamide]: 7.59.
For the compound `COc1ccc(CCS(C)(=O)=O)c(Nc2nc3ccccc3nc2NS(=O)(=O)c2ccccc2)c1` [Example 55, N-[3-({5-Methoxy-2-[2-(methylsulfonyl)ethyl]phenyl}amino)quinoxalin-2-yl]benzenesulfonamide], the pIC50 is 7.38.
Regarding `COc1ccc(CCCO)c(Nc2nc3ccccc3nc2NS(=O)(=O)C2CCN(C(=O)OCc3ccccc3)CC2)c1` [Example 66, Benzyl 4-{[(3-{[2-(3-hydroxypropyl)-5-methoxyphenyl]amino}quinoxalin-2-yl)amino]sulfonyl}piperidine-1-carboxylate], the pIC50 was 6.14.
Next, `COc1ccc(CC2CCN(C(=O)CN(C)C)CC2)c(Nc2nc3ccccc3nc2NS(=O)(=O)c2cn(C)cn2)c1` [Example 96, N-{3-[(2-{[1-(N,N-dimethylglycyl)piperidin-4-yl]methyl}-5-methoxyphenyl)amino]quinoxalin-2-yl}-1-methyl-1H-imidazole-4-sulfonamide]: 7.00.
The value for `COc1cc(CN2CCN(C)CC2)cc(Nc2nc3ccccc3nc2NS(=O)(=O)c2cccnc2)c1` [Example 92, N-[3-({3-methoxy-5-[(4-methylpiperazin-1-yl)methyl]phenyl}amino)quinoxalin-2-yl]pyridine-3-sulfonamide] was 6.01.
The value for `COc1ccc(CCS(C)(=O)=O)c(Nc2nc3ccccc3nc2NS(=O)(=O)c2c(C)noc2C)c1` [Example 54, N-[3-({5-Methoxy-2-[2-(methylsulfonyl)ethyl]phenyl}amino)quinoxalin-2-yl]-3,5-dimethylisoxazole-4-sulfonamide] was 6.72.
Regarding `COc1ccc(CCCO)c(Nc2nc3ccccc3nc2NS(=O)(=O)c2ccc(NC(=O)CN(C)C)cc2)c1` [Example 71, 2-Dimethylamino-N-(4-{[(3-{[2-(3-hydroxypropyl)-5-methoxyphenyl]amino}quinoxalin-2-yl)]sulfamoyl}phenyl)-acetamide], the pIC50 is 7.49.
For the compound `COc1ccc(CC2CCSCC2)c(Nc2nc3ccccc3nc2NS(=O)(=O)c2cn(C)cn2)c1` [Example 25, N-(3-{[5-methoxy-2-(tetrahydro-2H-thiopyran-4-ylmethyl)phenyl]amino}quinoxalin-2-yl)-1-methyl-1H-imidazole-4-sulfonamide], the pIC50 is 7.00.
`COc1ccc(CCO)c(Nc2nc3ccccc3nc2NS(C)(=O)=O)c1` [Example 37, N-(3-{[2-(2-Hydroxyethyl)-5-methoxyphenyl]amino}quinoxalin-2-yl)methanesulfonamide]: the pIC50 is 7.02.
For the compound `COc1ccc(CCCO)c(Nc2nc3ccccc3nc2NS(=O)(=O)C(C)C)c1` [Example 50, N-(3-{[2-(3-Hydroxyproxyl)-5-methoxypheyl]amino}quinoxalin-2-yl)propane-2-sulfonamide], the pIC50 was 7.14.
Turning to `COCCc1ccc(OC)cc1Nc1nc2ccccc2nc1NS(=O)(=O)c1cn(C)c(CS(C)(=O)=O)n1` [Example 79, N-(3-{[5-Methoxy-2-(2-methoxyethyl)phenyl]amino}quinoxalin-2-yl)-1-methyl-2-[(methylsulfonyl)methyl]-1H-imidazole-4-sulfonamide], the pIC50 was 6.70.
Next, `COc1ccc(CC2CCCC2)c(Nc2nc3ccccc3nc2NS(=O)(=O)c2cn(C)cn2)c1` [Example 24, N-(3-{[2-(cyclopentylmethyl)-5-methoxyphenyl]amino}quinoxalin-2-yl)-1-methyl-1H-imidazole-4-sulfonamide]: 6.74; `COc1ccc(CCO)c(Nc2nc3ccccc3nc2NS(=O)(=O)c2ccc(F)cc2)c1` [Example 36, 4-Fluoro-N-(3-{[2-(2-hydroxyethyl)-5-methoxyphenyl]amino}quinoxalin-2-yl)benzenesulfonamide]: 7.64.
For the compound `COc1ccc(CCCN(C)C)c(Nc2nc3ccccc3nc2NS(=O)(=O)c2cn(C)cn2)c1` [Example 31, N-[3-({2-[3-(Dimethylamino)propyl]-5-methoxyphenyl}amino)quinoxalin-2-yl]-1-methyl-1H-imidazole-4-sulfonamide], the pIC50 was 7.96.
Turning to `COCCc1ccc(OC)cc1Nc1nc2ccccc2nc1NS(=O)(=O)C1CCN(C(C)=O)CC1` [Example 101, 1-Acetyl-N-(3-{[5-methoxy-2-(2-methoxyethyl)phenyl]amino}quinoxalin-2-yl)piperidine-4-sulfonamide], the pIC50 was 6.52.
Regarding `COc1ccc(CN2CCOCC2)c(Nc2nc3ccccc3nc2NS(=O)(=O)c2cccnc2)c1` [Example 83, N-(3-{[5-methoxy-2-(morpholin-4-ylmethyl)phenyl]amino}quinoxalin-2-yl)pyridine-3-sulfonamide], the pIC50 was 7.14.
The value for `COc1ccc(C(=O)O)c(Nc2nc3ccccc3nc2NS(=O)(=O)c2cccnc2)c1` [Example 98, 4-methoxy-2-({3-[(pyridin-3-ylsulfonyl)amino]quinoxalin-2-yl}amino)benzoic acid] was 5.33; that for `COCCc1ccc(OC)cc1Nc1nc2ccccc2nc1NS(=O)(=O)C1CCNCC1` [Example 100, N-(3-{[5-Methoxy-2-(2-methoxyethyl)phenyl]amino}quinoxalin-2-yl)piperidine-4-sulfonamide] was 7.01.
The value for `COc1ccc(CCCO)c(Nc2nc3ccccc3nc2NS(=O)(=O)C2CCS(=O)(=O)C2)c1` (centres unmarked) [Example 63, N-(3-{[2-(3-Hydroxypropyl)-5-methoxyphenyl]amino}quinoxalin-2-yl)tetrahydrothiophene-3-sulfonamide 1,1-dioxide] was 6.89; that for `COc1ccc(CCO)c(Nc2nc3ccccc3nc2NS(=O)(=O)CCCSC)c1` [Example 58, N-(3-{[2-(2-Hydroxyethyl)-5-methoxyphenyl]amino}quinoxalin-2-yl)-3-(methylthio)propane-1-sulfonamide] was 7.12.
With `COc1cc(Nc2nc3ccccc3nc2NS(=O)(=O)c2cn(C)cn2)cc(C(=O)N(C)C)c1` [Example 75, 3-Methoxy-N,N-dimethyl-5-[(3-{[(1-methyl-1H-imidazol-4-yl)sulfonyl]amino}quinoxalin-2-yl)amino]benzamide], the pIC50 is 6.12.
The value for `COC(=O)c1ccc(OC)cc1Nc1nc2ccccc2nc1NS(C)(=O)=O` [Example 3, methyl 4-methoxy-2-({3-[(methylsulfonyl)amino]quinoxalin-2-yl}amino)benzoate] was 5.78.
On to `COc1ccc(CCCO)c(Nc2nc3ccccc3nc2NS(=O)(=O)c2c(C)noc2C)c1` [Example 42, N-(3-{[2-(3-Hydroxpropyl)-5-methoxyphenyl]amino}quinoxalin-2-yl)-3,5-dimethylisoxazole-4-sulfonamide], for which the pIC50 is 6.89.
Next, `COc1ccc(CCO)c(Nc2nc3ccccc3nc2NS(=O)(=O)c2cn(C)cn2)c1` [Example 35, N-(3-{[2-(2-Hydroxyethyl)-5-methoxyphenyl]amino}quinoxalin-2-yl)-1-methyl-1H-imidazole-4-sulfonamide]: 7.32.
For the compound `COc1ccc(CCS(C)(=O)=O)c(Nc2nc3ccccc3nc2NS(=O)(=O)c2cn(C)cn2)c1` [Example 40, N-[3-({5-Methoxy-2-[2-(methylsulfonyl)ethyl]phenyl}amino)quinoxalin-2-yl]-1-methyl-1H-imidazole-4-sulfonamide], the pIC50 was 7.08.
